In US11891365B2, “3-alkyl-4-amido-bicyclic [4,5,0] hydroxamic acids as HDAC inhibitors” (Valo Health, Inc., priority 2015, dated 2024):

Target: T1, Full length human recombinant HDAC6 protein (Homo sapiens, UniProt Q9UBN7)
T1 sequence (Q9UBN7 1-1215): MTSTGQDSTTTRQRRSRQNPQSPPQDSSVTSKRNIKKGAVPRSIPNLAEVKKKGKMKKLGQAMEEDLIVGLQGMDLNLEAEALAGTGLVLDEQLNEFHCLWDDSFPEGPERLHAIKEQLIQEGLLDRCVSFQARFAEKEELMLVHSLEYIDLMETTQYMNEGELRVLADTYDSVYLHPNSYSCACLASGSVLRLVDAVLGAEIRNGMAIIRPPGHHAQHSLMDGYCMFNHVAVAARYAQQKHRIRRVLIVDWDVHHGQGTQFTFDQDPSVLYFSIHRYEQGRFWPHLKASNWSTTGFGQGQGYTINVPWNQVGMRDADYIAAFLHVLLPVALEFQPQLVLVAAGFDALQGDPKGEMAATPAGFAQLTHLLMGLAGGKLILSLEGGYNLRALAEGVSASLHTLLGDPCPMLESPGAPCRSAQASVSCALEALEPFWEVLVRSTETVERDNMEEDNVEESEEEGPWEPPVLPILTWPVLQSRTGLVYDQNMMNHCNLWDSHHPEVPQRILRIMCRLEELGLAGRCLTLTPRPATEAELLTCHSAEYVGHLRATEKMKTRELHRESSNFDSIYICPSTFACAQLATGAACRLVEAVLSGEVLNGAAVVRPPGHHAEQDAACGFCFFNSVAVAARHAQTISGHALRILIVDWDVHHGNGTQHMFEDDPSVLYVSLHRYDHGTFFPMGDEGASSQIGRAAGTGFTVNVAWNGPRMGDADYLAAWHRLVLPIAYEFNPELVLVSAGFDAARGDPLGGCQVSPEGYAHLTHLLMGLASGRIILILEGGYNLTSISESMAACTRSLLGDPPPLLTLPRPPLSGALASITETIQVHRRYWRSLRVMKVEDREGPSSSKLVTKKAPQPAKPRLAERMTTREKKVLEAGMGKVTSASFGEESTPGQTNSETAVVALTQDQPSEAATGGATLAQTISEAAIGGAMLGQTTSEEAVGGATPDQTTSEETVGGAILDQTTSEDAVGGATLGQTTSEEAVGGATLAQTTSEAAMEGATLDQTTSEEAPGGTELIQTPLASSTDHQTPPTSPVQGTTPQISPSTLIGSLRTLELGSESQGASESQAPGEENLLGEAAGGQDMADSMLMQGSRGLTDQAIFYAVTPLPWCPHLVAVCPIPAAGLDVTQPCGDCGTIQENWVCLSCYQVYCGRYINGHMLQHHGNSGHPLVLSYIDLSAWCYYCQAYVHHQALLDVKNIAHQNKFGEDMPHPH
Experiment: In vitro histone deacetylase assay: enzymatic HDAC6 electrophoretic mobility shift assay
Format: biochemical
Details: 1 nM enzyme, 2 μM peptide substrate RHKK(Ac)-NH2, 25° C., 12 concentrations; read-out: Inhibitory Concentration (IC50) Values against HDAC6, Activity Range
Description: The enzymatic HDAC6 assay was performed using electrophoretic mobility shift assay. […] The enzymatic reactions were assembled in 384 well plates in a total volume of 25 μL in a reaction buffer composing: 100 mM HEPES, pH7.5, 25 mM KCl, 0.1% bovine serum albumin, 0.01% Triton X-100, 1% DMSO (from compounds) 2 μM of the fluorescently labeled peptide substrate and enzyme. The enzyme was added at a final concentration of 1 nM. The peptide substrate RHKK(Ac)—NH2 was used. The compounds were tested at 12 concentrations spaced by 3× dilution intervals. Negative control samples ([…] in the absence of inhibitor) and positive control samples (100%-inhibition) were assembled in replicates of four in each assay plate. The reactions were incubated at 25° C. and quenched by the addition of 45 μL of termination buffer (100 mM HEPES, pH 7.5, 0.01% Triton X-100, 0.05% SDS).
The terminated assay plates were analyzed on LabChip® 3000 microfluidic electrophoresis instrument (Perkin Elmer/Caliper Life Sciences). The fluorescence intensity of the electrophoretically separated de-acetylated product and substrate peptide was measured. Activity in each sample was determined as the product to sum ratio (PSR): P/(S+P), where P is the peak height of the product peptide and S is the peak height of the substrate peptide. Percent inhibition (Pinh) is determined using the following equation:
Pinh=(PSR0%−PSRinh)/(PSR0%−PSR100%)*100, where PSRinh is the product sum ratio in the presence of inhibitor, PSR0% is the average product sum ration in the absence of inhibitor and PSR100% is the average product sum ratio in 100%-inhibition control samples. The IC50 values of inhibitors were determined by fitting the %-inhibition curves with 4 parameter dose-response model using XLfit 4 software.

| SMILES | IC50 [nM] |
| --- | --- |
| O=C(NO)c1ccc2c(c1)OCCN(C(=O)C1CC3CCC(C1)O3)C2 (stereo not shown) [4-(8-oxabicyclo[3.2.1]octane-3-carbonyl)-N-hydroxy-2,3,4,5-tetrahydrobenzo[f][1,4]oxazepine-8-carboxamide] | ≤ 100 |
| O=C(NO)c1ccc2c(c1)OCCN(C(=O)c1ccc3c(c1)OCO3)C2 [4-(benzo[d][1,3]dioxole-5-carbonyl)-N-hydroxy-2,3,4,5-tetrahydrobenzo[f][1,4]oxazepine-8-carboxamide] | ≤ 100 |
| O=C(NO)c1ccc2c(c1)OCCN(C(=O)c1ccc3occc3c1)C2 [4-(benzofuran-5-carbonyl)-N-hydroxy-2,3,4,5-tetrahydrobenzo[f][1,4]oxazepine-8-carboxamide] | 100 to 500 |
| O=C(NO)c1ccc2c(c1)OCCN(C(=O)C1Cc3ccccc31)C2 (stereo not shown) [4-(bicyclo[4.2.0]octa-1(6),2,4-triene-7-carbonyl)-N-hydroxy-2,3,4,5-tetrahydrobenzo[f][1,4]oxazepine-8-carboxamide] | ≤ 100 |
| O=C(NO)c1ccc2c(c1)OCCN(C(=O)C1CCC1)C2 [4-(cyclobutanecarbonyl)-N-hydroxy-2,3,4,5-tetrahydrobenzo[f][1,4]oxazepine-8-carboxamide] | ≤ 100 |
| O=C(NO)c1ccc2c(c1)OCCN(C(=O)C1CCCCC1)C2 [4-(cyclohexanecarbonyl)-N-hydroxy-2,3,4,5-tetrahydrobenzo[f][1,4]oxazepine-8-carboxamide] | ≤ 100 |
| O=C(NO)c1cnc2c(c1)OCCN(C(=O)C1CCCCC1)C2 [4-(cyclohexanecarbonyl)-N-hydroxy-2,3,4,5-tetrahydropyrido[2,3-f][1,4]oxazepine-8-carboxamide] | 100 to 500 |
| O=C(NO)c1ccc2c(n1)OCCN(C(=O)C1CCCCC1)C2 [4-(cyclohexanecarbonyl)-N-hydroxy-2,3,4,5-tetrahydropyrido[3,2-f][1,4]oxazepine-8-carboxamide] | 100 to 500 |
| O=C1CN(C(=O)C2CCCCC2)Cc2cc(C(=O)NO)ccc2N1 [4-(cyclohexanecarbonyl)-N-hydroxy-2-oxo-2,3,4,5-tetrahydro-1H-benzo[e][1,4]diazepine-7-carboxamide] | > 500 |
| O=C(NO)c1ccc2c(c1)OCCN(C(=O)C1CCCC1)C2 [4-(cyclopentanecarbonyl)-N-hydroxy-2,3,4,5-tetrahydrobenzo[f][1,4]oxazepine-8-carboxamide] | ≤ 100 |
| O=C(NO)c1ccc2c(c1)OCCN(C(=O)C1CC1)C2 [4-(cyclopropanecarbonyl)-N-hydroxy-2,3,4,5-tetrahydrobenzo[f][1,4]oxazepine-8-carboxamide] | 100 to 500 |
| CC(=O)N1CCOc2cc(C(=O)NO)ccc2C1 [4-acetyl-N-hydroxy-2,3,4,5-tetrahydrobenzo[f][1,4]oxazepine-8-carboxamide] | ≤ 100 |
| CC(=O)N1Cc2ccc(C(=O)NO)cc2OCC1(C)C [4-acetyl-N-hydroxy-3,3-dimethyl-2,3,4,5-tetrahydrobenzo[f][1,4]oxazepine-8-carboxamide] | 100 to 500 |
| O=C(NO)c1ccc2c(c1)OCCN(C(=O)c1ccccc1)C2 [4-benzoyl-N-hydroxy-2,3,4,5-tetrahydrobenzo[f][1,4]oxazepine-8-carboxamide] | ≤ 100 |
| O=CN1CCOc2cc(C(=O)NO)ccc2C1 [4-formyl-N-hydroxy-2,3,4,5-tetrahydrobenzo[f][1,4]oxazepine-8-carboxamide] | ≤ 100 |
| O=C(NO)c1cnc2c(n1)OCCN(C(=O)C1CCCCC1)C2 [8-(cyclohexanecarbonyl)-N-hydroxy-6,7,8,9-tetrahydropyrazino[2,3-f][1,4]oxazepine-3-carboxamide] | ≤ 100 |
| O=C(NO)c1ccc2c(c1)O[C@@H]1C[C@H]2N(C(=O)C2CCOCC2)C1 [(2R,5R)-N-hydroxy-4-(tetrahydro-2H-pyran-4-carbonyl)-2,3,4,5-tetrahydro-2,5-methanobenzo[f][1,4]oxazepine-8-carboxamide] | 100 to 500 |
| O=C(NO)c1ccc2c(c1)O[C@H]1C[C@@H]2N(C(=O)C2CCOCC2)C1 [(2S,5S)-N-hydroxy-4-(tetrahydro-2H-pyran-4-carbonyl)-2,3,4,5-tetrahydro-2,5-methanobenzo[f][1,4]oxazepine-8-carboxamide] | > 500 |

Results, then the compound that gave them:

| IC50 [nM] | SMILES |
| --- | --- |
| ≤ 100 | C[C@H]1COc2cc(C(=O)NO)ccc2CN1C(=O)C1CCS(=O)(=O)C1 (stereo partly drawn) [(3S)-4-(1,1-dioxidotetrahydrothiophene-3-carbonyl)-N-hydroxy-3-methyl-2,3,4,5-tetrahydrobenzo[f][1,4]oxazepine-8-carboxamide] |
| ≤ 100 | CC(=O)N1CCC(C(=O)N2Cc3ccc(C(=O)NO)cc3OC[C@@H]2C)C1 (stereo partly drawn) [(3S)-4-(1-acetylpyrrolidine-3-carbonyl)-N-hydroxy-3-methyl-2,3,4,5-tetrahydrobenzo[f][1,4]oxazepine-8-carboxamide] |
| ≤ 100 | CC1CC(C(=O)N2Cc3ccc(C(=O)NO)cc3OC[C@@H]2C)CC(C)O1 (stereo partly drawn) [(3S)-4-(2,6-dimethyltetrahydro-2H-pyran-4-carbonyl)-N-hydroxy-3-methyl-2,3,4,5-tetrahydrobenzo[f][1,4]oxazepine-8-carboxamide] |
| ≤ 100 | C[C@H]1COc2cc(C(=O)NO)ccc2CN1C(=O)C1CCC(C)(C)O1 (stereo partly drawn) [(3S)-4-(5,5-dimethyltetrahydrofuran-2-carbonyl)-N-hydroxy-3-methyl-2,3,4,5-tetrahydrobenzo[f][1,4]oxazepine-8-carboxamide] |
| ≤ 100 | C[C@H]1COc2cc(C(=O)NO)ccc2CN1C(=O)C1CC2CCC(C1)O2 (stereo partly drawn) [(3S)-4-(8-oxabicyclo[3.2.1]octane-3-carbonyl)-N-hydroxy-3-methyl-2,3,4,5-tetrahydrobenzo[f][1,4]oxazepine-8-carboxamide] |
| ≤ 100 | C[C@H]1COc2cc(C(=O)NO)ccc2CN1C(=O)[C@@H]1CC2CCC1O2 (stereo partly drawn) [(3S)-4-((2R)-7-oxabicyclo[2.2.1]heptane-2-carbonyl)-N-hydroxy-3-methyl-2,3,4,5-tetrahydrobenzo[f][1,4]oxazepine-8-carboxamide] |
| ≤ 100 | C[C@H]1COc2cc(C(=O)NO)ccc2CN1C(=O)[C@H]1CC2CCC1O2 (stereo partly drawn) [(3S)-4-((2S)-7-oxabicyclo[2.2.1]heptane-2-carbonyl)-N-hydroxy-3-methyl-2,3,4,5-tetrahydrobenzo[f][1,4]oxazepine-8-carboxamide] |
| ≤ 100 | C[C@H]1COc2cc(C(=O)NO)ccc2CN1C(=O)CC1CCCO1 (stereo partly drawn) [(3S)-N-hydroxy-3-methyl-4-(2-(tetrahydrofuran-2-yl)acetyl)-2,3,4,5-tetrahydrobenzo[f][1,4]oxazepine-8-carboxamide] |
| ≤ 100 | C[C@H]1COc2cc(C(=O)NO)ccc2CN1C(=O)C1(C)CCCO1 (stereo partly drawn) [(3S)-N-hydroxy-3-methyl-4-(2-methyltetrahydrofuran-2-carbonyl)-2,3,4,5-tetrahydrobenzo[f][1,4]oxazepine-8-carboxamide] |
| ≤ 100 | C[C@H]1COc2cc(C(=O)NO)ccc2CN1C(=O)C1CCCOCC1 (stereo partly drawn) [(3S)-N-hydroxy-3-methyl-4-(oxepane-4-carbonyl)-2,3,4,5-tetrahydrobenzo[f][1,4]oxazepine-8-carboxamide] |
